Experimental data taken from patent US20050054770A1, “Helicomimetics and stabilized lxxll peptidomimetics” (priority 2001, published 2005).
Where two headings read alike, the source gives them in different places. Positions of bridges follow the written chain, without caps; N, C: chain ends. Non-standard residues stand in square brackets, D forms with d. Residues, ends and D or L forms follow the SMILES beside them. dPen = CC(C)(S)[C@@H](N)C(=O)O; Pen = CC(C)(S)[C@H](N)C(=O)O; Aib = CC(C)(N)C(=O)O

Assays:
ER beta = ER beta (Homo sapiens, UniProt Q92731); assay: competition binding assay against a model linear peptide sequence (estrogen receptor-coactivator interaction), ER beta
ER beta, sequence (Q92731 whole entry): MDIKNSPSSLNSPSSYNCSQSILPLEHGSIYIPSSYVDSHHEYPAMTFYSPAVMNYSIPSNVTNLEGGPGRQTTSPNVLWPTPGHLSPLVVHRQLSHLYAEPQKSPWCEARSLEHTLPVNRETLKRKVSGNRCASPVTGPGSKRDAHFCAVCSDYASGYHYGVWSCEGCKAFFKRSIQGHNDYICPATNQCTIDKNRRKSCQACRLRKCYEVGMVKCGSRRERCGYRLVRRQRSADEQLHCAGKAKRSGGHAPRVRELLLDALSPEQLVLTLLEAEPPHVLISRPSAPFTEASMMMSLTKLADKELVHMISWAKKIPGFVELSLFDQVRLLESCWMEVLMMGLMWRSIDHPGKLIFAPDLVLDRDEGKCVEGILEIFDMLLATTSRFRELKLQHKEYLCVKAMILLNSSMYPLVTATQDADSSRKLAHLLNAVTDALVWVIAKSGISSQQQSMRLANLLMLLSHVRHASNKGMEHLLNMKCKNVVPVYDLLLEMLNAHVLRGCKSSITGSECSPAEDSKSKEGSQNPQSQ
Experimental: (§1) The synthetic helicormimetic peptides designed as antagonists of the estrogen receptor-coactivator interactions were tested in a competition binding assay (Lilly Research Labs) against a model linear peptide sequence. Activities are reported in the Table below in Ki values, with two of the best analogs labeled as PERM-1 and PERM-2, or Peptidomimetic Estrogen Receptor Modulators.

ER alpha = biological target: T1, ER alpha (Homo sapiens, UniProt P03372); assay: competition binding assay against a model linear peptide sequence (estrogen receptor-coactivator interaction), ER alpha
T1 sequence (P03372 1-595): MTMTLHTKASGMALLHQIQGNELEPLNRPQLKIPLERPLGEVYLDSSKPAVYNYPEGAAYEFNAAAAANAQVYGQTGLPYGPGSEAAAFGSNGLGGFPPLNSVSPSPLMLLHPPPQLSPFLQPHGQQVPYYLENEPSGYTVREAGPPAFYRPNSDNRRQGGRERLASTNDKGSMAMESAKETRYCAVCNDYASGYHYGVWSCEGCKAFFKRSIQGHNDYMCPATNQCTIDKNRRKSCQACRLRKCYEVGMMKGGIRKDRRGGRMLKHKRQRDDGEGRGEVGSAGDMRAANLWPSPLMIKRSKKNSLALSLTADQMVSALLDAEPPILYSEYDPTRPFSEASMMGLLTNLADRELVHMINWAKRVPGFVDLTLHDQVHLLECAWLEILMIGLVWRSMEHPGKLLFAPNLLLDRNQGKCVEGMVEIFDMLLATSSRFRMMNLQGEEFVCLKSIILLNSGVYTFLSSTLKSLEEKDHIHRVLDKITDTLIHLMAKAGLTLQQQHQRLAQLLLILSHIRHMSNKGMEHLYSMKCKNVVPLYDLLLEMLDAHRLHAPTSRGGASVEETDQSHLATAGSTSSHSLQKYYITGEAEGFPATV
Experimental: as §1

estrogen receptors = assay: inhibition of the binding of the estrogen receptors to the helical segment of coactivator proteins; conditions: result in words
Experimental: as §1

[1] = competition binding assay (Lilly Research Labs), read-out: Ki ER β
[2] = competition binding assay (Lilly Research Labs), read-out: Ki ER α

| Ki (ER beta; [1]) [µM] | Ki (ER alpha; [2]) [µM] | Ki (ER beta; read-out: Ki value against ER beta) [µM] | Ki (ER alpha; read-out: Ki value against ER alpha) [µM] | inhibitory activity on binding of estrogen receptors to helical segment of coactivator proteins (estrogen receptors) | Molecule | selectivity ER alpha versus ER beta (ER alpha; from Ki values against ER alpha and ER beta) |
| --- | --- | --- | --- | --- | --- | --- |
| 3.97 | 0.078 |  |  |  | CC[C@H](C)[C@@H]1NC(=O)[C@H](NC(=O)[C@@H](N)CCCNC(=N)N)C(C)(C)SSC(C)(C)[C@@H](C(=O)N[C@@H](CCCNC(=N)N)C(=O)N[C@@H](CC(C)C)C(=O)N[C@@H](CC(C)C)C(=O)N[C@@H](CCC(N)=O)C(N)=O)NC(=O)[C@H](CC(C)C)NC1=O [AKG-II-11, H-Arg-cyclo(D-Pen-Ile-Leu-Pen)-Arg-Leu-Leu-Gln-NH2] (H-R[dPen]IL[Pen]RLLQ-NH2; disulfide 2-5) |  |
| 0.39 |  | ~0.39 | 0.025 |  | CC[C@H](C)[C@@H]1NC(=O)[C@H](NC(=O)[C@@H](N)CCCCN)CSSC[C@@H](C(=O)N[C@@H](CCCNC(=N)N)C(=O)N[C@@H](CC(C)C)C(=O)N[C@@H](CC(C)C)C(=O)N[C@@H](CCC(N)=O)C(N)=O)NC(=O)[C@H](CC(C)C)NC1=O [AML-I-48/4, H-Lys-cyclo (D-Cys-Ile-Leu-Cys)-Arg-Leu-Leu-Gln-NH2] (H-K[dC]ILCRLLQ-NH2; disulfide 2-5) | exhibits selectivity against the ER alpha receptor |
| 2.8 | 0.17 |  |  |  | CC[C@H](C)[C@H](NC(=O)[C@H](CCCCN)NC(=O)[C@@H](N)CCCCN)C(=O)N[C@@H](CC(C)C)C(=O)N[C@@H](Cc1c[nH]cn1)C(=O)N[C@@H](CCCNC(=N)N)C(=O)N[C@@H](CC(C)C)C(=O)N[C@@H](CC(C)C)C(=O)N[C@@H](CCC(N)=O)C(N)=O [AML-I-61/2, H-Lys-Lys-Ile-Leu-His-Arg-Leu-Leu-Gln-NH2] (H-KKILHRLLQ-NH2) |  |
| 7.7 | 0.12 |  |  |  | CC[C@H](C)[C@@H]1NC(=O)[C@H](NC(=O)[C@H](CCCCN)NC(C)=O)CSSC[C@@H](C(=O)N[C@@H](CCCNC(=N)N)C(=O)N[C@@H](CC(C)C)C(=O)N[C@@H](CC(C)C)C(=O)N[C@@H](CCC(N)=O)C(N)=O)NC(=O)[C@H](CC(C)C)NC1=O [AML-I-71/2, Ac-Lys-cyclo(D-Cys-Ile-Leu-Cys)-Arg-Leu-Leu-Gln-NH2] (Ac-K[dC]ILCRLLQ-NH2; disulfide 2-5) |  |
| 1.4 | 0.13 |  |  |  | CC[C@H](C)[C@@H]1NC(=O)[C@H](NC(=O)[C@H](CCCCN)NC(=O)C(C)(C)N)CSSC[C@@H](C(=O)N[C@@H](CCCNC(=N)N)C(=O)N[C@@H](CC(C)C)C(=O)N[C@@H](CC(C)C)C(=O)N[C@@H](CCC(N)=O)C(N)=O)NC(=O)[C@H](CC(C)C)NC1=O [AML-I-83/4, Aib-Lys-cyclo(D-Cys-Ile-Leu-Cys)-Arg-Leu-Leu-Gln-NH2] (H-[Aib]K[dC]ILCRLLQ-NH2; disulfide 3-6; N-terminus assumed) |  |
| 6.9 | 0.38 |  |  |  | CC[C@H](C)[C@H](NC(=O)[C@H](CCCCN)NC(=O)[C@H](Cc1c[nH]cn1)NC(=O)[C@@H](N)CCCCN)C(=O)N[C@@H](CC(C)C)C(=O)N[C@@H](Cc1c[nH]cn1)C(=O)N[C@@H](CCCNC(=N)N)C(=O)N[C@@H](CC(C)C)C(=O)N[C@@H](CC(C)C)C(=O)N[C@@H](CCC(N)=O)C(=O)N[C@@H](CC(=O)O)C(=O)N[C@@H](CO)C(=O)N[C@@H](CO)C(=O)O [AML-I-89/2, H-Lys-His-Lys-Ile-Leu-His-Arg-Leu-Leu-Gln-Asp-Ser-Ser-OH] (H-KHKILHRLLQDSS-OH) |  |
|  |  |  |  | do not display any inhibitory activity | Leu-Asn-Gln-Leu-Leu (LNQLL; printed: Leu-Asn-Gln-Leu-Leu) |  |
